Earlier results, collected in PMC8228323, “Biodegradation of L-Valine Alkyl Ester Ibuprofenates by Bacterial Cultures” (Materials, 2021).

Legend:
microorganisms = tested on: microorganisms; parameters: method as in PMID 22644530, PMID 23262323, doi:10.4314/jasem.v25i3.5, PMID 33724810, PMID 33601200; details: at the applied concentration
[1] = parameters: method as in PMID 20111784; details: CO2 released, 0 to 28 days

In the case of `CC(C)Cc1ccc(C(C)C(=O)O)cc1` (centres unmarked) [IBU, ibuprofen], the “Inhibition of microbial activity” value (microorganisms) is given as “did not inhibit the microbial activity”.

For `CCCCCCCCCCCCOS(=O)(=O)[O-].[Na+]` [SDS, sodium dodecyl sulfate], the Degree of biodegradability [1] is listed as “about 95%”.

For `CCCCCCCCOS(=O)(=O)[O-].CCCCOCCOC(=O)Cn1cc[n+](C)c1` [[BuOCH2CH2OCOCH2min][OctOSO3]], the Degree of biodegradability [1] is given as “more than 60%”.

For `CCCCCCCCOS(=O)(=O)[O-].CCOCCOC(=O)Cn1cc[n+](C)c1` [[EtOCH2CH2OCOCH2min][OctOSO3]], the Degree of biodegradability [1] is listed as 59%.

For `CCCCCCCCOS(=O)(=O)[O-].CCCOCCOC(=O)Cn1cc[n+](C)c1` [[PrOCH2CH2OCOCH2min][OctOSO3]], the Degree of biodegradability [1] is listed as “more than 60%”.
